In ChEMBL document CHEMBL1201862, “PubChem BioAssay data set” (2004):
Structures can show the parent of a compound that is named as a salt. The source made the active and inactive calls.

What was measured:
[1] = molecular target: Solute carrier family 12 member 2/member 5 (Homo sapiens, UniProt P55011+Q9H2X9); experiment: KCC2 and NKCC1 inhibition by rubidium flux, cell-based, NKCC1 counter-screen (AID 1734); type: functional, HEK293
[2] = molecular target: T1, Heat shock factor protein 1 (Mus musculus, UniProt P38532); experiment: inhibition of MG132-induced HSE-luciferase signal, confirmation, cell-based, NIH3T3, luminescence, dose retest (AID 2382); type: functional;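 further: NIH3T3 fibroblasts with HSF1-driven luciferase reporter stressed by proteasome inhibitor MG132; luminescence from HSF1-driven luciferase expression after 8 hours of MG132 stress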
T1 sequence (P38532 whole entry): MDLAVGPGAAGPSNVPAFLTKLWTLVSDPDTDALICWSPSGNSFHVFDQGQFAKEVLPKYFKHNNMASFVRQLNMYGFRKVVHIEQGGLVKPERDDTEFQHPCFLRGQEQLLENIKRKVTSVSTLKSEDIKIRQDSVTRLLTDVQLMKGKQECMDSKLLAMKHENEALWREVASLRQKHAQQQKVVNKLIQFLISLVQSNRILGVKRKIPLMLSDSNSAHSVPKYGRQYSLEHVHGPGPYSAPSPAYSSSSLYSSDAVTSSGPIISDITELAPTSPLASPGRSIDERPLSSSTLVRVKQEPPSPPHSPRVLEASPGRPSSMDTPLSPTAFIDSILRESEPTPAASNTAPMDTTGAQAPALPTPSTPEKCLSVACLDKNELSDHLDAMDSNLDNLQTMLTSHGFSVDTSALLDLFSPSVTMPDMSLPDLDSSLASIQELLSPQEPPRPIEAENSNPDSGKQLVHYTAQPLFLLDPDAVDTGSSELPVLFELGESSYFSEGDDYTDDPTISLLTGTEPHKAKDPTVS

[3] = molecular target: T2, Bcl-2-related protein A1 (Mus musculus, UniProt Q07440); experiment: Bfl-1 inhibitors blocking BH3 peptide binding, confirmation, biochemical, TR-FRET, mouse Bfl-1 (AID 621);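 further: TR-FRET binding of GST-Bfl-1 to FITC-labelled Bid peptide via terbium antibody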
T2 sequence (Q07440 whole entry): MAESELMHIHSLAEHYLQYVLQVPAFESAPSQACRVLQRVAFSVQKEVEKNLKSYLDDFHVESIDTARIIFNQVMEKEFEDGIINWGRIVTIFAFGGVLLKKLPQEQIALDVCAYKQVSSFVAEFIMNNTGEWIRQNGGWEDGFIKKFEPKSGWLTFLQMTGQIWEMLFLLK

[4] = molecular target: T2, Bcl-2-related protein A1; experiment: Bfl-1 inhibitors, primary screen, biochemical, fluorescence polarization, FITC-Bid, mouse (AID 432)
[5] = molecular target: T3, Sentrin-specific protease 1 (Homo sapiens, UniProt Q9P0U3); experiment: potency of human SENP1 inhibitors, dose response, biochemical, kinetic FRET (AID 651697); type: functional; conditions: read-out: IC50_Mean
T3 sequence (Q9P0U3 whole entry): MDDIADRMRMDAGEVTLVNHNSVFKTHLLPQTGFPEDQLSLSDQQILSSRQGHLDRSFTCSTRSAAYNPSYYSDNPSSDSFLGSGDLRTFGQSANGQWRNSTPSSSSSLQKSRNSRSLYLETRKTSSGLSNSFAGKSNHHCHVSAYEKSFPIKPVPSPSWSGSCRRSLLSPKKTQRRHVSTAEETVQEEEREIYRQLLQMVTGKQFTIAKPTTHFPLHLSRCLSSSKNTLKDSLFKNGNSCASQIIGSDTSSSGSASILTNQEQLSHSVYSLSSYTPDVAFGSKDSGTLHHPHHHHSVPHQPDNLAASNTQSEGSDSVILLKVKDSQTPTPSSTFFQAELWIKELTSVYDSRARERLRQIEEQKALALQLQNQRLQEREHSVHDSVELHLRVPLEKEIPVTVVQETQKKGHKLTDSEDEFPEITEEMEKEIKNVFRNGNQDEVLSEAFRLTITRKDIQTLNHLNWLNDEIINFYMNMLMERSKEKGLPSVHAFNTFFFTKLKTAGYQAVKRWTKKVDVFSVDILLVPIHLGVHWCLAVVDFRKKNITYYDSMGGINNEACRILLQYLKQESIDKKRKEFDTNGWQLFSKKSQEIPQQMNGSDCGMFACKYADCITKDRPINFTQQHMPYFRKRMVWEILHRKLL

[6] = molecular target: T3, Sentrin-specific protease 1; experiment: Dose response confirmation of small molecule inhibitors of the catalytic domain of the SUMO protease, SENP1 in a FRET assay.; type: functional; conditions: read-out: IC50_Mean
[7] = molecular target: T4, RNA-binding protein pos-1 (Caenorhabditis elegans, UniProt G5EF15); experiment: inhibitors of POS-1/mex-3 RNA binding, dose response, biochemical, fluorescence polarization (AID 1964);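 further: purified POS-1 fused to maltose binding protein made in E. coli; potency of compounds blocking POS-1 binding to fluorescent RNA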
T4 sequence (G5EF15 whole entry): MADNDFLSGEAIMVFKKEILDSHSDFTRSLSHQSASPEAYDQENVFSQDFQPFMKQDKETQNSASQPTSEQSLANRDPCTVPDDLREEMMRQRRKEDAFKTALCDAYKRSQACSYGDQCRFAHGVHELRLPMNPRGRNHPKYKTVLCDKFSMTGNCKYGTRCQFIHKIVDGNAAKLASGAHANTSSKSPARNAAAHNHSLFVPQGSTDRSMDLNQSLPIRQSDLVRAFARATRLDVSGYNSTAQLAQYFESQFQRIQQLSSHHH

[8] = molecular target: T5, 14-3-3 protein gamma (Homo sapiens, UniProt P61981); experiment: modulators of 14-3-3 gamma client binding – dose response (AID 711); type: functional
T5 sequence (P61981 whole entry): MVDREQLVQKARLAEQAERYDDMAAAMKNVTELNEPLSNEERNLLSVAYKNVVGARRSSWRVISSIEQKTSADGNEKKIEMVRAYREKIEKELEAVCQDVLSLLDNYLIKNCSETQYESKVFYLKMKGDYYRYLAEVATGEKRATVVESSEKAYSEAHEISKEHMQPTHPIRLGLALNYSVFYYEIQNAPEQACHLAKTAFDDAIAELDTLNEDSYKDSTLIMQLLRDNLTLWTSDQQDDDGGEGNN

[9] = molecular target: T6, Endoribonuclease toxin MazF (Escherichia coli K-12, UniProt P0AE70); experiment: fluorescent RNA oligo signal without MazF, dose response, counter-screen for MazEF activator project, biochemical, fluorescence, single-stranded RNase substrate (AID 588502); type: functional
T6 sequence (P0AE70 whole entry): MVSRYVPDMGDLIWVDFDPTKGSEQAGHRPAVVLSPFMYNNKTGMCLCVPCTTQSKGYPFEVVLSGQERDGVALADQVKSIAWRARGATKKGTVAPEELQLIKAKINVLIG

[10] = molecular target: T6, Endoribonuclease toxin MazF; experiment: MazF toxin RNase activators, dose response, biochemical, fluorescence, single-stranded RNA substrate, uHTS hits (AID 588481); type: functional
[11] = molecular target: Heat shock protein HSP90 (Homo sapiens, UniProt P07900+P08238); experiment: tumor Hsp90 inhibitor potency, dose response (AID 712); type: functional
[12] = molecular target: Troponin, cardiac muscle (Homo sapiens, UniProt P19429+P45379+P63316); experiment: Fluorescence-based biochemical high throughput dose response assay for activators of the calcium sensitivity of cardiac Regulated Thin Filaments (RTF). [Related pubchem assays (depositor defined):AID493008, AID493018, AID504382, AID504383]; type: protein-complex assay
[13] = molecular target: T7, Corticotropin-releasing factor receptor 2/Corticotropin-releasing factor-binding protein (Homo sapiens, UniProt P24387+Q13324); experiment: activators of CRF receptor 2 with binding protein – uHTS hits, confirmation (AID 602473); type: functional; conditions: read-out: EC50_Mean
T7 sequence (Q13324 whole entry): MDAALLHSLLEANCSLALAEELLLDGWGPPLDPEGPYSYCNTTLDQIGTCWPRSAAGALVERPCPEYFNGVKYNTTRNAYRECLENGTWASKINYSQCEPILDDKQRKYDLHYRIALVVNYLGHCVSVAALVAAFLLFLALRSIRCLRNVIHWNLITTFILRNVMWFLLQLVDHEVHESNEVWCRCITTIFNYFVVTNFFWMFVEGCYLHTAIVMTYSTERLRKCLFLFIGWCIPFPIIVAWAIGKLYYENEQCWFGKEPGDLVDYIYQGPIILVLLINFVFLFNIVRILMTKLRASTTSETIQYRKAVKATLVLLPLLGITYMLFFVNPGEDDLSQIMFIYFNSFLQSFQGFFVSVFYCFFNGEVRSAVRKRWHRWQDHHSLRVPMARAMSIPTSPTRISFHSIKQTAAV
T7 sequence (P24387 whole entry): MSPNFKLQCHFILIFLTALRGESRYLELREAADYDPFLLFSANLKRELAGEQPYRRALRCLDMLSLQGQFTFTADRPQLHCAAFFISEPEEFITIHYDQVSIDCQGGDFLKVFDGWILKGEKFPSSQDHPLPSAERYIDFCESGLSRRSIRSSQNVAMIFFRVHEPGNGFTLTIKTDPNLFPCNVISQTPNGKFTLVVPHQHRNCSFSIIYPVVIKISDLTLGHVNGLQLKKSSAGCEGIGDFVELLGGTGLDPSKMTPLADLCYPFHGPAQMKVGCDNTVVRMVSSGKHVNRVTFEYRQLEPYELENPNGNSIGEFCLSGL

[14] = molecular target: UDP-galactopyranose mutase (Mycobacterium tuberculosis, UniProt P9WIQ1); experiment: Inhibitors of Mycobacterium tuberculosis UDP-galactopyranose mutase (UGM) enzyme Measured in Biochemical System Using Plate Reader - 2105-02_Inhibitor_Dose_CherryPick_Activity. [Related pubchem assays (depositor defined):AID504439]
Chain of UDP-galactopyranose mutase (P9WIQ1 whole entry): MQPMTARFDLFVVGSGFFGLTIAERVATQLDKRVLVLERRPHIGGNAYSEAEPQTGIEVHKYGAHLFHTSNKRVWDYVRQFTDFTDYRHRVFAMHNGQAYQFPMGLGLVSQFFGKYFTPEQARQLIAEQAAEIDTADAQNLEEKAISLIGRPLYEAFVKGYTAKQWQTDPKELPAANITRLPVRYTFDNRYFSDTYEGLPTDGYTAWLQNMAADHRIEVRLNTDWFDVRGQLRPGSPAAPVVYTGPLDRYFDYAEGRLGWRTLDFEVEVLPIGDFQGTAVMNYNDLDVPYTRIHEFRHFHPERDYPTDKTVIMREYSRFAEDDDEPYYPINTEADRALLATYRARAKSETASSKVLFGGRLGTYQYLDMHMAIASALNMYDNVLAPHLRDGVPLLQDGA

[15] = HEK293T cytotoxicity, dose response, cytotoxicity control for miR-122 modulator project, cell-based, inhibitor set, cherry-pick, set 2 (AID 720697); type: functional
[16] = A549 cell cytotoxicity, dose response, CellTiter-Glo luminescence, dry powder, set 17 (AID 1117284); type: functional, cell-based
[17] = A549 cell cytotoxicity, dose response, cytotoxicity control, 24 h, CellTiter-Glo luminescence, cherry-picks (AID 1053115); type: functional, cell-based; conditions: A549, 24 h
[18] = HEK293T cytotoxicity, dose response, cytotoxicity control for miR-122 modulator project, cell-based, activator set, cherry-pick (AID 720690); type: functional;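 further: HEK293T human cells scored for general mammalian cytotoxicity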
[19] = non-specific cell cytotoxicity, dose response, cytotoxicity control for PAX8 inhibitor project, plate reader, dry powder samples (AID 743021); type: functional, cell-based
[20] = molecular target: Paired box protein Pax-8 (Homo sapiens, UniProt Q06710); experiment: inhibitors of PAX8-driven TPO luciferase reporter, dose response, RMG-I cells, cherry-pick (AID 687027); type: functional, cell-based;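 further: luciferase reporter driven by Pax8 target thyroperoxidase promoter measured by SteadyGlo luminescence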
Chain of Paired box protein Pax-8 (Q06710 whole entry): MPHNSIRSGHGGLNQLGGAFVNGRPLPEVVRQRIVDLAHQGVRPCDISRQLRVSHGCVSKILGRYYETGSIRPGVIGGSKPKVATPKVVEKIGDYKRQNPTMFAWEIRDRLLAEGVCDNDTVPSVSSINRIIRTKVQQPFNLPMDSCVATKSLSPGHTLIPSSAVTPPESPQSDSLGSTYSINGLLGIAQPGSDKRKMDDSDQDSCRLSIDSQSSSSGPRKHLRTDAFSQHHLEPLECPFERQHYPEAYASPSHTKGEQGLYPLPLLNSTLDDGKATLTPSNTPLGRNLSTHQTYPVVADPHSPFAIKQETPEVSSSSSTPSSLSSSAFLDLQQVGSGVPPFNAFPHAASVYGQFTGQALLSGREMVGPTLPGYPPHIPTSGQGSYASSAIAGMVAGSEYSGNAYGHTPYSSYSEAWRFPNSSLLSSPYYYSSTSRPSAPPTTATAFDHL

[21] = cytotoxicity in OVCAR8 ovarian cancer cells, dose response, PAX8 project, cell-based, plate reader, dry powder samples (AID 743197); type: functional; conditions: OVCAR-8
[22] = P. falciparum ATP4 D1247Y mutant growth inhibitors, dose response, NITD609-resistant line, SYBR Green, dry powder (AID 1159571); type: functional, cell-based;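 further: parasites synchronized at ring stage by sorbitol before testing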
[23] = HepG2 cell cytotoxicity, dose response, cytotoxicity control, plate reader, dry powder samples (AID 1159569); type: functional, cell-based;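 further: inhibitor potency with signal falling toward the positive control level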
[24] = P. falciparum Dd2 growth inhibitors, dose response, SYBR Green, dry powder samples (AID 1159566); type: functional, cell-based;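 further: potency for growth inhibition with lower SYBR green DNA signal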
[25] = HepG2 cell cytotoxicity, dose response, cytotoxicity control, cherry-picked samples (AID 1159577); type: functional, cell-based
[26] = Plasmodium falciparum Dd2 Sybr green parasite growth Measured in Cell-Based and Microorganism Combination System Using Plate Reader - 2153-01_Inhibitor_Dose_DryPowder_Activity_Set3.; type: functional
[27] = P. falciparum Dd2 growth inhibitors, dose response, SYBR Green, cherry-picked samples (AID 1159567); type: functional, cell-based
[28] = P. falciparum 3D7-ScDHODH growth inhibitors, dose response, SYBR Green, dry powder samples (AID 1159570); type: functional, cell-based;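 further: parasite growth measured after 72 hours of compound exposure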
[29] = P. falciparum Dd2 growth inhibitors, dose response, SYBR Green, dry powder samples, set 9 (AID 1159568); type: functional, cell-based
[30] = tested on: HEK293; experiment: Fluorescence-based counterscreen for potentiators or agonists of NPY-Y2: cell-based high-throughput dose response assay to identify inhibitors of cyclic nucleotide gated ion channel (CNGC) activity. In this assay, the parental HEK293 cell line transfected with a cyclic-nucleotide gated ion channel (CNGC)-based cAMP sensor is used to measure inhibition of isoproterenol-induced CNGC activity by test compound.; type: functional; conditions: Homo sapiens;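 further: stimulus is 1 µM isoproterenol at EC100 plus PDE inhibitor Ro 20-1724 at 25 µM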

## Cc1csc(NC(=O)CSc2ccc(-c3ccccc3)nn2)n1
[1]
  IC50: 0.56 µM (active)
[2]
  EC50: > 195 µM (not active)

## Nc1ccc(C2CCCc3nonc32)c2nonc12 (stereo not given)
[3]
  IC50: > 100 µM (not active)
[4]
  IC50: > 100 µM (not active)
[5]
  IC50: 42 µM (inactive)
[6]
  IC50: 39.4 µM (inactive)

## CN(C)c1ccc(/N=C/c2nc(-c3ccccc3)oc2O)cc1
[7]
  EC50: 5.7 µM (active)
[8]
  IC50: 9.68 µM (active)
[9]
  EC50: 56.6 µM (inactive)
[10]
  EC50: 46.7 µM (inactive)
[11]
  IC50: 27.302 µM
[12]
  EC50: 3.71 µM (active)
[13]
  EC50: 7.96 µM (active)
[14]
  AC50: 68.2 µM (active)

## C[C@H](O)C#Cc1ccc2c(c1)O[C@@H](CN(C)Cc1ccc(-c3ccccc3)cc1)[C@@H](C)CN([C@H](C)CO)S2(=O)=O
[15]
  AC50: 21.6 µM (active)
[16]
  AC50: > 52 µM (inactive)
[17]
  AC50: 48.6 µM (active)
[18]
  AC50: 22.8 µM (active)
[19]
  AC50: 46.3 µM (active)
[20]
  AC50: 4.57 µM (active)
[21]
  AC50: > 70 µM (inactive)

## COc1ccc(-c2ccc([C@H]3[C@@H](C#N)N(C(=O)NC(C)C)[C@H]3CO)cc2)cc1
[22]
  AC50: 0.874 µM (active)
[23]
  AC50: 80.6 µM (active)
[24]
  AC50: 0.559 µM (active)
[25]
  AC50: 3.33 µM (active)
[26]
  AC50: 1.86 µM (active)
[27]
  AC50: 0.89 µM (active)
[28]
  AC50: 3.98 µM (active)
[29]
  AC50: 1.2 µM (active)

## COCCc1ccc(OCC(O)CNC(C)C)cc1 (stereo not given) [METOPROLOL TARTRATE]
[30]
  EC50: 2.99 µM (active)
